# Data from PMC9646673, “A Novel, Orally Bioavailable, Small-Molecule Inhibitor of PCSK9 With Significant Cholesterol-Lowering Properties In Vivo” (Journal of Lipid Research, 2022).
# Tests used:
# [1] = biological target: T1, PCSK9-LDLR interaction (Homo sapiens, UniProt Q8NBP7); test: CircuLex PCSK9-LDLR in vitro binding assay; details: in vitro biochemical binding assay; read-out: IC50 against the PCSK9-LDLR interaction
# T1 construct: purchased CycLex (Nagano, Japan) CY8150
# Description: Ethics was granted by the Comité de Protection des Personnes Sud Méditerranée (ID: 2020-A00196-33). Studies using human samples abided by the Declaration of Helsinki principles.
# [2] = system: hepatic LDLR protein; test: First efficacy study: hepatic LDLR protein (Western blotting); format: in vivo, mouse; details: day 28
# Description: Animal experiments were approved by the governmental central committee on animal experiments (AVD5010020172064) and TNO’s animal welfare body (TNO-471 and TNO-482). Female APOE∗3-Leiden.CETP transgenic mice (11–16 weeks of age) were bred at the animal facility of TNO-InnoSer (Leiden, The Netherlands). Female animals were used in this study as they are more responsive to dietary cholesterol and fat than males and therefore typically develop atherosclerosis more rapidly than male APOE∗3-Leiden and APOE∗3-Leiden.CETP mice on cholesterol-containing diets ([33], [34]). […] Body weight, food intake, and clinical signs of behavior were monitored throughout the studies. […]
# Treatment times were around 8:00 am and 4:00 pm each day. Throughout the in-life phase of the study, body weight and food intake (per cage) were measured at regular predetermined intervals while blood samples were collected every 7 days. […] Throughout the study, plasma cholesterol, triglycerides, HDL-C, lipoprotein profiles, PCSK9 expression levels, aspartate transaminase levels (AST), and alanine transaminase levels (ALT) were measured as described below.
# The transcript levels of select genes in the liver tissue of mice treated with either vehicle or NYX-PCSK9i were analyzed. […] Differential transcriptional activity was calculated using the 2^–ΔΔCt method.
# [3] = system: APOE∗3-Leiden.CETP mice; test: First efficacy study: body weight, food intake, plasma AST and ALT; format: in vivo, mouse; design: Body weight (mean ± SD) / Food intake (mean ± SD): unit not given here; details: for Plasma ALT / Plasma AST: group-pooled
# Description: (§1) Animal experiments were approved by the governmental central committee on animal experiments (AVD5010020172064) and TNO’s animal welfare body (TNO-471 and TNO-482). Female APOE∗3-Leiden.CETP transgenic mice (11–16 weeks of age) were bred at the animal facility of TNO-InnoSer (Leiden, The Netherlands). Female animals were used in this study as they are more responsive to dietary cholesterol and fat than males and therefore typically develop atherosclerosis more rapidly than male APOE∗3-Leiden and APOE∗3-Leiden.CETP mice on cholesterol-containing diets ([33], [34]). Although measurements of atherosclerosis were not included as part of the present study, females were used with the prospect in mind that atherosclerosis studies will follow. The mice were housed under standard conditions that included 12 h light-dark cycles and access to a WTD and sterilized tap water ad libitum. Body weight, food intake, and clinical signs of behavior were monitored throughout the studies. […] Time t = 0 (weeks) was designated as the time at which mice were matched into groups after the 3-week run-in period in each efficacy study.
# Treatment times were around 8:00 am and 4:00 pm each day. Throughout the in-life phase of the study, body weight and food intake (per cage) were measured at regular predetermined intervals while blood samples were collected every 7 days. The last gavage was administered on day 27. On day 28, the mice were sacrificed by CO2 asphyxiation, EDTA-plasma was obtained via heart puncture, and the liver was weighed and collected. Throughout the study, plasma cholesterol, triglycerides, HDL-C, lipoprotein profiles, PCSK9 expression levels, aspartate transaminase levels (AST), and alanine transaminase levels (ALT) were measured as described below.
# (§2) In both studies, blood samples were collected at weekly intervals via tail vein sampling after fasting the mice for 4 h. Blood samples were centrifugated (4500 g at 4°C), and the plasma was collected for the following analyses. Total plasma cholesterol levels were determined using a Cholesterol CHOD-PAP kit according to the manufacturer’s instructions. Plasma HDL-C levels were determined by first precipitating apoB-containing lipids using PEG 6000/glycine and then utilizing the Cholesterol CHOD-PAP kit ([35]). Non-HDL-C levels were determined by subtracting HDL-C levels from total cholesterol levels ([32]). Group-pooled lipoprotein profiles were determined by FPLC analysis using an AKTApurifier 10 FPLC system (GE Healthcare, Chicago, IL). Plasma PCSK9 levels were determined using a Mouse PCSK9 Quantikine ELISA kit as per the manufacturer’s protocol. ALT and AST levels of group-pooled samples were measured using the Roche Reflotron Plus System (Mannheim, Germany).
# [4] = system: APOE∗3-Leiden.CETP mice; test: Second efficacy study (35 days, with atorvastatin): plasma lipids; format: in vivo, mouse
# Description: as §1, §2
# [5] = system: hepatic LDLR protein; test: Second efficacy study: hepatic LDLR protein (Western blotting); format: in vivo, mouse; details: day 35; NYX-PCSK9i 50 mg/kg BID PO, atorvastatin […]
# [6] = system: Hmgcr, Srebf2, Pcsk9, Ldlr, Mttp transcripts in liver tissue; test: Hepatic gene transcription (qPCR), day 35; format: in vivo, mouse; details: 50 mg/kg BID PO, 5 weeks
# Experimental: The transcript levels of select genes in the liver tissue of mice treated with either vehicle or NYX-PCSK9i were analyzed. RNA was isolated from liver tissue using an RNA STAT-60 kit as per the manufacturer’s protocol. RNA concentrations were determined using a NanoDrop 2000 spectrophotometer (Thermo Fisher Scientific, Rockford, IL), and up to 2 μg of RNA was used as a template for cDNA synthesis using a High-capacity RNA-to-cDNA kit according to the manufacturer’s instructions. Quantitative PCR was performed with fluorescein amidite-labeled TaqMan® Assay primers and TaqMan® Fast Universal PCR Master Mix using a QuantStudio 6 Flex Real-Time PCR system (Applied Biosystems). DNA was amplified by applying a standard cycle protocol with an annealing temperature of 60°C and 40 cycles of amplification. Differential transcriptional activity was calculated using the 2^–ΔΔCt method.
# [7] = system: APOE∗3-Leiden.CETP mice; test: Fecal bile acid and neutral sterol content, cholesterol balance
# Experimental: In a subsequent efficacy study, mice were treated identically to the first study with the following modifications. Mice in group 1 received vehicle solution (5% DMSO, 5% Solutol HS15, and 90% saline) twice daily by oral gavage. […] The study ran for a total of 35 days with blood and tissue collection and analysis performed as described below.
# Analyses of fecal neutral sterol and bile acid contents were performed by gas chromatographic analysis as previously detailed ([37], [38]). Per treatment group, two cages of four mice per cage were used, with feces collected twice per cage during the last week of the study. The net cholesterol uptake, or cholesterol balance, was defined as the dietary cholesterol intake (food intake measured weekly) minus the summed fecal output of neutral sterols and bile acids.
# [8] = 30 mg/kg BID PO, day 0 (baseline)
# [9] = 50 mg/kg BID PO, day 0 (baseline)
# [10] = day 0 (baseline), NYX-PCSK9i 50 mg/kg BID PO
# [11] = day 14, NYX-PCSK9i 50 mg/kg BID PO
# [12] = day 28, NYX-PCSK9i 50 mg/kg BID PO
# [13] = day 35, NYX-PCSK9i 50 mg/kg BID PO
# T1 sequence (Q8NBP7 153-692): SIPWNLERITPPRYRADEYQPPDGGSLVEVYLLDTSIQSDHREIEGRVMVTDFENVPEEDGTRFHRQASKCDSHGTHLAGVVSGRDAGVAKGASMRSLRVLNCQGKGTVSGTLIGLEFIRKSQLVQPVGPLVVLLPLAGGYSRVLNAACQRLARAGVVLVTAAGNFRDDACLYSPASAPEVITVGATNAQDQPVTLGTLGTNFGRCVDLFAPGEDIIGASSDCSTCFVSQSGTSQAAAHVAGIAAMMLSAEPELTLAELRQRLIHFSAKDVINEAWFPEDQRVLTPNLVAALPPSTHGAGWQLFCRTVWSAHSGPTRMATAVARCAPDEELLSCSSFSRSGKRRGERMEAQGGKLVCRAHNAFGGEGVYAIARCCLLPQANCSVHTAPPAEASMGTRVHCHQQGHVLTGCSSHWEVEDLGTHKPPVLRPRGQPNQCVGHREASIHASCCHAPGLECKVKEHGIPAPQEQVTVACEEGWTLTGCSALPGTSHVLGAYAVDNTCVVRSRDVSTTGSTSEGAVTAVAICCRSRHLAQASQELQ
# T1 sequence (Q8NBP7 31-152 partner limits assumed): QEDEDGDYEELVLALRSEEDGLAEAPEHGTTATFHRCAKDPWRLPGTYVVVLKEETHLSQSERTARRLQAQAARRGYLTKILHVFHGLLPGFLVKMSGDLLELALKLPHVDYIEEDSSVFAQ
structure (smiles),measurement,setting,value
Cc1cn(-c2cc(CN3CCC[C@H](N)C3)cc(NC(=O)c3cc(-c4ccccc4)ccn3)c2)cn1 [NYX-PCSK9i],IC50,[1],0.323 µM
same,increase in hepatic LDLR protein levels,[2]; 30 mg/kg BID PO,46%
same,increase in hepatic LDLR protein levels,[2]; 50 mg/kg BID PO,51%
same,Body weight (mean ± SD),[3]; [8],21.9 ± 1.3
same,Food intake (mean ± SD),[3]; [8],3.3 ± 0.3
same,Body weight (mean ± SD),"[3]; 30 mg/kg BID PO, day 7",22.0 ± 1.6
same,Food intake (mean ± SD),"[3]; 30 mg/kg BID PO, day 7",2.7 ± 0.3
same,Food intake (mean ± SD),"[3]; 30 mg/kg BID PO, day 14",2.6 ± 0.6
same,Food intake (mean ± SD),"[3]; 30 mg/kg BID PO, day 21",2.4 ± 0.2
same,Body weight (mean ± SD),"[3]; 30 mg/kg BID PO, day 28",22.0 ± 1.1
same,Food intake (mean ± SD),"[3]; 30 mg/kg BID PO, day 28",3.0 ± 0.1
same,Food intake (mean ± SD),[3]; [9],3.3 ± 0.3
same,Body weight (mean ± SD),"[3]; 50 mg/kg BID PO, day 7",21.8 ± 1.3
same,Food intake (mean ± SD),"[3]; 50 mg/kg BID PO, day 7",2.6 ± 0.0
same,Body weight (mean ± SD),"[3]; 50 mg/kg BID PO, day 14",21.8 ± 1.1
same,Food intake (mean ± SD),"[3]; 50 mg/kg BID PO, day 14",2.9 ± 0.0
same,Body weight (mean ± SD),"[3]; 50 mg/kg BID PO, day 21",21.5 ± 1.4
same,Food intake (mean ± SD),"[3]; 50 mg/kg BID PO, day 21",2.7 ± 0.0
same,Body weight (mean ± SD),"[3]; 50 mg/kg BID PO, day 28",21.6 ± 1.1
same,Food intake (mean ± SD),"[3]; 50 mg/kg BID PO, day 28",2.7 ± 0.1
same,plasma levels of the liver enzymes AST and ALT compared to vehicle,"[3]; 30 and 50 mg/kg BID PO, 28 days",remained stable
same,Plasma ALT,[3]; [8],76.8 U/L
same,Plasma AST,[3]; [8],185.2 U/L
same,Plasma ALT,"[3]; 30 mg/kg BID PO, day 7",69.6 U/L
same,Plasma AST,"[3]; 30 mg/kg BID PO, day 7",175.2 U/L
same,Plasma ALT,"[3]; 30 mg/kg BID PO, day 14",70.0 U/L
same,Plasma AST,"[3]; 30 mg/kg BID PO, day 14",158.8 U/L
same,Plasma ALT,"[3]; 30 mg/kg BID PO, day 21",55.6 U/L
same,Plasma AST,"[3]; 30 mg/kg BID PO, day 21",156.8 U/L
same,Plasma ALT,"[3]; 30 mg/kg BID PO, day 28",35.6 U/L
same,Plasma AST,"[3]; 30 mg/kg BID PO, day 28",84 U/L
same,Plasma ALT,[3]; [9],70.0 U/L
same,Plasma AST,[3]; [9],170.8 U/L
same,Plasma ALT,"[3]; 50 mg/kg BID PO, day 7",74.8 U/L
same,Plasma AST,"[3]; 50 mg/kg BID PO, day 7",181.2 U/L
same,Plasma ALT,"[3]; 50 mg/kg BID PO, day 14",56 U/L
same,Plasma AST,"[3]; 50 mg/kg BID PO, day 14",147.6 U/L
same,Plasma ALT,"[3]; 50 mg/kg BID PO, day 21",47.6 U/L
same,Plasma AST,"[3]; 50 mg/kg BID PO, day 21",120.4 U/L
same,Plasma ALT,"[3]; 50 mg/kg BID PO, day 28",38 U/L
same,Plasma AST,"[3]; 50 mg/kg BID PO, day 28",107 U/L
same,Plasma HDL-cholesterol,[4]; [10],0.9 ± 0.1 mmol/L
same,Plasma non- HDL-cholesterol,[4]; [10],14.6 ± 2.5 mmol/L
same,Plasma triglycerides (mean ± SD),[4]; [10],5.3 ± 1.4 mmol/L
same,Plasma triglycerides (mean ± SD),"[4]; day 7, NYX-PCSK9i 50 mg/kg BID PO",8.9 ± 3.3 mmol/L
same,Plasma HDL-cholesterol,[4]; [11],0.7 ± 0.4 mmol/L
same,Plasma non- HDL-cholesterol,[4]; [11],12.7 ± 0.6 mmol/L
same,Plasma triglycerides (mean ± SD),[4]; [11],8.6 ± 2.7 mmol/L
same,Plasma triglycerides (mean ± SD),"[4]; day 21, NYX-PCSK9i 50 mg/kg BID PO",7.1 ± 1.6 mmol/L
same,Plasma HDL-cholesterol,[4]; [12],0.8 ± 0.2 mmol/L
same,Plasma non- HDL-cholesterol,[4]; [12],11.8 ± 2.8 mmol/L
same,Plasma triglycerides (mean ± SD),[4]; [12],6.0 ± 1.7 mmol/L
same,Plasma HDL-cholesterol,[4]; [13],0.7 ± 0.4 mmol/L
same,Plasma non- HDL-cholesterol,[4]; [13],12.8 ± 2.8 mmol/L
same,Plasma triglycerides (mean ± SD),[4]; [13],5.8 ± 1.7 mmol/L
same,increase in hepatic LDLR protein expression,[5],45%
same,increase in hepatic transcription of Pcsk9,[6],61%
same,upregulation of hepatic Srebf2 transcript,[6],33%
same,share of fecal neutral sterols that was cholesterol,[7]; data not shown,more than 95%
same,cholesterol balance (dietary cholesterol intake minus fecal bile acids and neutral sterols),[7]; final week of 35-day study,negative
